Experimental data from ChEMBL document CHEMBL1134732, “Acid dissociation constant, a potential physicochemical factor in the inhibition of the enzyme estrone sulfatase (ES)” (Bioorg Med Chem Lett, 2001).

Tests used:
[1] = Dissociation constant was determined; type: physicochemical
[2] = biological target: T1, Steryl-sulfatase (Homo sapiens) (UniProt P08842); assay: (§1) Potency for the inhibition of estrone sulfatase relative to coumate
T1 sequence (whole entry): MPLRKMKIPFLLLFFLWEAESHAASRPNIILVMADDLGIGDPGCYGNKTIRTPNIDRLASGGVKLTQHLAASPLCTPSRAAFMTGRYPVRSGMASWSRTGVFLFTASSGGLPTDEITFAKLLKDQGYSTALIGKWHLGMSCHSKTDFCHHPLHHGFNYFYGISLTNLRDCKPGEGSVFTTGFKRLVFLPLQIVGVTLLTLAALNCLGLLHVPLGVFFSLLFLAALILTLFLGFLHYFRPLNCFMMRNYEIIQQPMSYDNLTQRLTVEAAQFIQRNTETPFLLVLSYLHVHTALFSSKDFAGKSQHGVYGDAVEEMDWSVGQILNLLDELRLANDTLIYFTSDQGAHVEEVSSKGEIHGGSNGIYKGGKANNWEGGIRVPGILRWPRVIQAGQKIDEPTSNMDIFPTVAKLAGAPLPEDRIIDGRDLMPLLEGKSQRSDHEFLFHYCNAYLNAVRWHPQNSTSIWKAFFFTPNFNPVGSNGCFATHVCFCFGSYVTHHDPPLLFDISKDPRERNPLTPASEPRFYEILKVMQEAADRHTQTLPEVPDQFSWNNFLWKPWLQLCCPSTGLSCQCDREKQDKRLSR

Steryl-sulfatase = biological target: T2, Steryl-sulfatase (Homo sapiens, UniProt P08842); assay: Inhibitory concentration against estrone sulfatase
T2 sequence (P08842 whole entry): T1 sequence (whole entry)

[3] = as §1

Compound | pKa [1] | Relative potency [2] | IC50 (Steryl-sulfatase) [µM] | Relative potency [3]
C[C@]12CC[C@@H]3c4ccc(OS(N)(=O)=O)cc4CC[C@H]3[C@@H]1CCC2=O [EMATE] |  |  | 0.1 | 0.008
NS(=O)(=O)Oc1ccc([N+](=O)[O-])cc1 | 7.15 | 27.5 | 330 | 
NS(=O)(=O)Oc1ccc(Br)cc1 | 9.29 | 76 | 912 | 
NS(=O)(=O)Oc1ccc(Cl)cc1 | 9.5 | 132 | 1580 | 
NS(=O)(=O)Oc1ccc(F)cc1 | 9.8 |  | > 10000 | 
Cc1ccc(OS(N)(=O)=O)cc1 | 10.2 |  | > 10000 | 
NS(=O)(=O)Oc1ccccc1 [PHENYLSULFAMATE] | 9.98 |  | > 10000 | 
NS(=O)(=O)Oc1ccc2ccc(=O)oc2c1 |  |  | 12 | 1

More lines, main results first:

pKa [1] | Relative potency [2] | IC50 (Steryl-sulfatase) [µM] | Compound | Relative potency [3]
8.28 | 10 | 120 | NS(=O)(=O)Oc1cccc([N+](=O)[O-])c1 | 
9 | 45 | 537 | NS(=O)(=O)Oc1cccc(Cl)c1 | 
8.54 | 16 | 190 | N#Cc1cccc(OS(N)(=O)=O)c1 | 
9.16 | 174 | 2090 | NS(=O)(=O)Oc1cccc(F)c1 | 
8.95 | 21 | 257 | NS(=O)(=O)Oc1cccc(Br)c1 | 
8.02 | 25 | 300 | N#Cc1ccc(OS(N)(=O)=O)cc1 | 
10 |  | > 10000 | Cc1cccc(OS(N)(=O)=O)c1 | 
